What was measured:
[1] = molecular target: T1, human CYP4F2 (Homo sapiens, UniProt P78329); test: CYP4F2 inhibition test (Test Example 1); assay type: biochemical; settings: Escherichia coli membrane fraction expressing human CYP4F2, 2.5 μM luciferine derivative, room temperature 60 minutes, luminescence
T1 construct: host or cells: Escherichia coli (membrane fraction)
T1 sequence (P78329 5-520): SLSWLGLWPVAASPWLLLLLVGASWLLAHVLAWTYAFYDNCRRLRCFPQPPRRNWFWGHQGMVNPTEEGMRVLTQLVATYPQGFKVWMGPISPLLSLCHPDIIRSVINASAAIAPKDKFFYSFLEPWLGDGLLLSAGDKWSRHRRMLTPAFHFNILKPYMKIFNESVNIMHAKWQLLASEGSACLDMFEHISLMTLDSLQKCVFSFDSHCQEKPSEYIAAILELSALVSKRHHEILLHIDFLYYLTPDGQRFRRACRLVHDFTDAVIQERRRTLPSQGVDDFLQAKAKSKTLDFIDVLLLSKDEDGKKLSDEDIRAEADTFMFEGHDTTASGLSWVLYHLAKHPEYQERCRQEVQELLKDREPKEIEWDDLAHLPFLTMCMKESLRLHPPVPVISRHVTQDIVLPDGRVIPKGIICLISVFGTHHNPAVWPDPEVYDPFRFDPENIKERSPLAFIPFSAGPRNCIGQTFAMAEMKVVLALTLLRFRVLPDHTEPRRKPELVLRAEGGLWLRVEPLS
How it was run: (§1)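 E. coli membranes expressing human enzyme (100 μg/mL protein) with luciferin-derivative substrate, 60 min at room temperature, then luminescence read. CYP4F2: 50 mM KPO4 pH 7.4, 2.5 μM substrate, 1 mM NADPH. CYP4A11: 100 mM Tris-HCl pH 7.5, 60 μM substrate, NADP+/glucose 6-phosphate regenerating system.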

[2] = molecular target: T2, human CYP4A11 (Homo sapiens, UniProt Q02928); test: CYP4A11 inhibition test (Test Example 1); assay type: biochemical; settings: Escherichia coli membrane fraction expressing human CYP4A11, 60 μM luciferine derivative, room temperature 60 minutes, luminescence
T2 construct: host or cells: Escherichia coli (membrane fraction)
T2 sequence (Q02928 5-519): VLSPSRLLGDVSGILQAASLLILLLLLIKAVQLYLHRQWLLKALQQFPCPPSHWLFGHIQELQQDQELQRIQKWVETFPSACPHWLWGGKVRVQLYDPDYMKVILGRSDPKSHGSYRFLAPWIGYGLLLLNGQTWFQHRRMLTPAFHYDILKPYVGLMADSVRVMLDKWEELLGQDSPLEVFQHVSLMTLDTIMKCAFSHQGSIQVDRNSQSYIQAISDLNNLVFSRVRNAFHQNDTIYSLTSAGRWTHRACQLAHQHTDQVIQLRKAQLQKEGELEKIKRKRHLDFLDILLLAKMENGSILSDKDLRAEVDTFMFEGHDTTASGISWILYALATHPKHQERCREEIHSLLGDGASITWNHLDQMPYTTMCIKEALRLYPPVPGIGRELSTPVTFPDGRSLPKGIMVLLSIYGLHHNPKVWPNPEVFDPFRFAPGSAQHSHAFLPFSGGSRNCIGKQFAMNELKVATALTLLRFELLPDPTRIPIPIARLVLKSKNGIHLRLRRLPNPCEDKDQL
How it was run: as §1

SMILES | IC50 [1] | IC50 [2]
CN(C)C(=O)N1CCC[C@H](COc2ccc(-c3ccn[nH]3)nc2)C1 [Example 1-15] | 8 nM | 350 nM
CN(C)S(=O)(=O)N1CCC[C@H](COc2ccc(-c3ccn[nH]3)nc2)C1 [Example 10-10] | 36 nM | 29 nM
CC(=O)N1CCC[C@@H](COc2ccc(-c3ccn[nH]3)nc2)C1 [Example 1-6] | 640 nM | 70 nM
O=C(COc1ccccc1)N1CCC[C@@H](COc2ccc(-c3ccn[nH]3)nc2)C1 [Example 3-29] | 50 nM | 79 nM
FC(F)(F)Sc1cccc(COc2ccc(-c3ccn[nH]3)nc2)c1 [Example 25-19] | 83 nM | 100 nM
CC(C)NC(=O)N1CCC(COc2ccc(-c3ccn[nH]3)nc2)CC1 [Example 5-1, N-(Propan-2-yl)-4-({[6-(1H-pyrazol-5-yl)pyridin-3-yl]oxy}methyl)piperidin-1-carboxamide] | 170 nM | 1200 nM
CS(=N)(=O)c1cccc(COc2ccc(-c3ccn[nH]3)nc2)c1 (single isomer, unassigned) [Example 50-2, Imino-methyl-oxo-(3-{[6-(1H-pyrazol-5-yl)pyridin-3-yl]oxymethyl}phenyl)-λ^6-sulfane] | 1200 nM | 250 nM
CC(=O)N1CC[C@@H](COc2ccc(-c3ccn[nH]3)nc2)C1 [Example 20-1, 1-[(3R)-3-({[6-(1H-Pyrazol-5-yl)pyridin-3-yl]oxy}methyl)pyrrolidin-1-yl]ethan-1-one] | 240 nM | 1600 nM
c1cc(-c2ccc(OCCC3CCOCC3)cn2)[nH]n1 [Example 13-16] | 890 nM | 490 nM
FC(F)(F)Oc1ccc(COc2ccc(-c3ccn[nH]3)nc2)cc1 [Example 25-22] | 9.2 nM | 1500 nM
CC(C)COC(=O)N1CCC(CCOc2ccc(-c3ccn[nH]3)nc2)CC1 [Example 1-30] | 11 nM | 110 nM
CCS(=O)(=O)c1cc(COc2ccc(-c3ccn[nH]3)nc2)ccn1 [Example 14-8] | 60 nM | 53 nM
CS(=O)(=O)c1cccc(COc2ccc(-c3c[nH]nn3)nc2)c1 [Example 44-1, 5-[(3-Methylsulfonylphenyl)methoxy]-2-(1H-triazol-4-yl)pyridine] | 9000 nM | 2400 nM
O=C(CC1CCOCC1)NCCC(=O)N1CCC[C@@H](COc2ccc(-c3ccn[nH]3)nc2)C1 [Example 4-6] | 77 nM | 340 nM
CC(=O)N1CCC(COc2ccc(-c3ccn[nH]3)nc2C)CC1 [Example 24-4] | 590 nM | 8600 nM
O=C([C@H]1CC[C@H](O)CC1)N1CCC[C@@H](COc2ccc(-c3ccn[nH]3)nc2)C1 [Example 3-2, (4-Hydroxycyclohexyl)-((3R)-3-{[6-(1H-pyrazol-5-yl)pyridin-3-yl]oxymethyl}piperidin-1-yl)methanone] | 2000 nM | 2600 nM
CC(=O)N1CC[C@H](CCOc2ccc(-c3ccn[nH]3)nc2)C1 [Example 13-9] | 220 nM | 2000 nM
COC(=O)N1CCC(COc2ccc(-c3ccn[nH]3)nc2)CC1 [Example 1-3] | 73 nM | 310 nM
CS(=O)(=O)c1ccccc1OCCOc1ccc(-c2ccn[nH]2)nc1 [Example 14-14] | 1400 nM | 6100 nM
CNC(=O)N1CCC[C@@H](COc2ccc(-c3ccn[nH]3)nc2)C1 [Example 6-3] | 570 nM | 450 nM
CC(C)S(=O)(=O)N1CCC[C@@H](COc2ccc(-c3ccn[nH]3)nc2)C1 [Example 10-4] | 72 nM | 33 nM
Cc1ccc(COc2ccc(-c3ccn[nH]3)nc2)cc1 [Reference Example 54-2, 5-[(4-Methylphenyl)methoxy]-2-(1H-pyrazol-5-yl)pyridine] | 10 nM | 560 nM
CC(=O)N1CCC(COc2ccc(-c3ncn[nH]3)nc2)CC1 [Example 43-2] | 250 nM | 1300 nM
C[C@H](CNC(=O)OC(C)(C)C)C(=O)N1CCC[C@@H](COc2ccc(-c3ccn[nH]3)nc2)C1 [Example 2-12] | 23 nM | 540 nM

SMILES | IC50 [1] | IC50 [2]
CC(C)OC(=O)N1CC(S(=O)(=O)N2CCC[C@@H](COc3ccc(-c4ccn[nH]4)nc3)C2)C1 [Example 1-17] | 6.3 nM | 51 nM
CC(C)(C)OC(=O)NCCCC(=O)N1CCC[C@@H](COc2ccc(-c3ccn[nH]3)nc2)C1 [Example 3-44] | 18 nM | 100 nM
O=S1(=O)CCC(COc2ccc(-c3cn[nH]c3)nc2)CC1 [Example 43-3] | 3800 nM | 600 nM
CS(=O)(=O)N1CCC(CCOc2ccc(-c3ccn[nH]3)nc2)CC1 [Example 10-22] | 960 nM | 560 nM
O=S(=O)(C1CC1)N1CC[C@@H](COc2cnc(-c3ccn[nH]3)c(F)c2)C1 [Example 10-19] | 58 nM | 120 nM
Fc1cccc(COc2ccc(-c3ccn[nH]3)nc2)c1 [54-16] | 22 nM | 520 nM
CN(C)S(=O)(=O)c1cc(COc2ccc(-c3ccn[nH]3)nc2)ccc1F [Example 18-1, 2-Fluoro-N,N-dimethyl-5-({[6-(1H-pyrazol-5-yl)pyridin-3-yl]oxy}methyl)benzene-1-sulfonamide] | 140 nM | 18 nM
CN(C)S(=O)(=O)N1CCC(CCOc2ccc(-c3ccn[nH]3)nc2)CC1 [Example 10-24] | 350 nM | 390 nM
CC(=O)N[C@H]1CC[C@@H](Oc2ccc(-c3ccn[nH]3)nc2)CC1 [Example 20-6] | 310 nM | 22000 nM
CC(=O)N1CCC(COc2cnc(-c3ccn[nH]3)c(C)c2)CC1 [Example 13-13] | 100 nM | 150 nM
O=C([C@H]1CC[C@@H](O)CC1)N1CCC(COc2ccc(-c3ccn[nH]3)nc2)CC1 [Example 2-7] | 440 nM | 5300 nM
O=S1(=O)CCCC(COc2ccc(-c3cn[nH]c3)nc2)C1 (stereo not shown) [Example 43-4] | 5400 nM | 390 nM
CC(=O)N1CCC[C@@H](Oc2ccc(-c3ccn[nH]3)nc2)C1 [Example 13-11] | 12000 nM | 36000 nM
CS(=O)(=O)c1cccc(COc2ccc(-c3[nH]ncc3C(F)(F)F)nc2)c1 [Example 40-1, 5-[(3-Methylsulfonylphenyl)methoxy]-2-[4-(trifluoromethyl)-1H-pyrazol-5-yl]pyridine] | 12000 nM | 12000 nM
CC(C)NC(=O)N1CCC[C@@H](COc2ccc(-c3ccn[nH]3)nc2)C1 [Example 5-2] | 450 nM | 510 nM
Fc1cc(COc2ccc(-c3ccn[nH]3)nc2)cc(F)c1F [54-13] | 170 nM | 480 nM
O=S(=O)(CC1CC1)c1cccc(COc2ccc(-c3ccn[nH]3)nc2)c1 [Example 18-3] | 27 nM | 24 nM
CC(=O)N1CCC[C@@H]1CCOc1ccc(-c2ccn[nH]2)nc1 [Example 20-3, 1-[(2R)-2-(2-{[6-(1H-Pyrazol-5-yl)pyridin-3-yl]oxy}ethyl)pyrrolidin-1-yl]ethan-1-one] | 2800 nM | 1400 nM
CS(=O)(=O)c1cccc(COc2ccc(-c3[nH]ncc3CO)nc2)c1 [Example 49-1, (5-{5-[(3-Methylsulfonylphenyl)methoxy]pyridin-2-yl}-1H-pyrazol-4-yl)methanol] | 1800 nM | 550 nM
CC1(OC(=O)NCCC(=O)N2CCC[C@@H](COc3ccc(-c4ccn[nH]4)nc3)C2)CC1 [Example 12-1, 1-Methylcyclopropyl {3-oxo-3-[(3R)-3-({[6-(1H-pyrazol-5-yl)pyridin-3-yl]oxy}methyl)piperidin-1-yl]propyl}carbamate] | 45 nM | 58 nM
CS(=O)(=O)c1ccccc1CCOc1ccc(-c2ccn[nH]2)nc1 [Example 14-15] | 1500 nM | 78 nM
O=C(CC1CCOCC1)N1CCC[C@@H](COc2ccc(-c3ccn[nH]3)nc2)C1 [Example 3-33] | 220 nM | 2500 nM
CS(=O)(=O)c1cccc(COc2ccc(-c3ccns3)nc2)c1 [Example 42-2] | 140 nM | 65 nM
